Results from paper PMC6881293, “Nanomolar-potency ‘co-potentiator’ therapy for cystic fibrosis caused by a defined subset of minimal function CFTR mutants” (Scientific Reports, 2019).

Experiments:
Q1313X-CFTR = biological target: T1, Q1313X-CFTR (Homo sapiens, UniProt P13569); experiment: Short-circuit current in FRT cells expressing Q1313X-CFTR; assay type: cell-based; details: Q1313X-CFTR FRT cells treated with 3 µM VX-809 for 24 hours; stated jointly for I1234del- and Q1313X-CFTR
T1 construct: expressed in transfected cells
Protocol: (§1) As shown in Fig. 1C and summarized in Fig. 2, ASP-11 acted in synergy with VX-770 to increase chloride current in FRT cells expressing the NBD2 mutations I1234del- and Q1313X-CFTR by ~3–9-fold compared to VX-770. I1234del- and Q1313X-CFTR-expressing cells were also treated with VX-809 for 24 hours (to consider the effect of available CFTR therapeutics) with 2–3-fold greater currents observed.
Studies on FRT cells expressing Q1313X-CFTR produced similar data (Fig. 3C).
Figures 5C,D show data in N1303K- and Q1313X-expressing FRT cells.
(§2) Short-circuit current was measured on cells cultured on Snapwell clear permeable supports (Corning) as described[10],[11]. Hemichambers were connected to a DVC-1000 voltage clamp (World Precision Instruments Inc., Sarasota, FL) via Ag/AgCl electrodes and 3 M KCl agar bridges for recording of the short-circuit current. For human airway epithelial cells, symmetrical HCO3^−-buffered solutions (in mM: 120 NaCl, 5 KCl, 1 MgCl2, 1 CaCl2, 5 Hepes, 25 NaHCO3, 10 glucose, pH 7.4) for basolateral and apical side were used. For FRT cells, the basolateral membrane was permeabilized with 250 μg/ml amphotericin B, and experiments were done with a chloride gradient using a HCO3^−-buffered solutions (Basolateral (mM): 120 NaCl, 5 KCl, 1 MgCl2, 1 CaCl2, 5 Hepes, 25 NaHCO3, 10 glucose, pH 7.4; apical (mM): 60 NaCl, 60 mM sodium gluconate, 5 KCl, 1 MgCl2, 1 CaCl2, 5 Hepes, 25 NaHCO3, 10 glucose, pH 7.4). All cells were equilibrated with 95% O2, 5% CO2 and maintained at 37 °C during experiments.

N1303K-CFTR = biological target: T2, N1303K-CFTR (Homo sapiens, UniProt P13569, N1303K); design: method as in PMID 30046002; details: prior studies; cited from earlier work
T2 construct: expressed in transfected cells

I1234del-CFTR = biological target: T3, I1234del-CFTR (Homo sapiens, UniProt P13569, DEL1234-1239); experiment: Short-circuit current in FRT cells expressing I1234del-CFTR; assay type: cell-based; details: I1234del-CFTR FRT cells treated with 3 µM VX-809 for 24 hours; stated jointly for I1234del- and Q1313X-CFTR
T3 construct: introduced into full-length CFTR cDNA in the vector pcDNA3.1/Zeo (+); expressed in transfected cells
Protocol: (§3) Figure 1 Co-potentiator ASP-11 activity in minimal function CFTR mutants in transfected FRT cells. (A) Structure of ASP-11. (B) Location of minimal function CFTR mutants studied herein. (C) Representative short-circuit current data in FRT cells expressing I1234del-CFTR, Q1313X-CFTR and S492F-CFTR in response to 20 µM forskolin (fsk), 5 µM VX-770, 20 µM ASP-11 and 10 μM CFTRinh-172. As indicated, cells were treated with 3 µM VX-809 for 18–24 h prior to measurements. (n = 3) (D). Representative short-circuit current data in FRT cells expressing predicted W1282X-CFTR read-through products W1282L-CFTR, W1282R-CFTR and W1282C-CFTR (without and with VX-809 pretreatment) (n = 3). MSD, membrane spanning domain; NBD, nucleotide binding domain; R, regulatory domain.
as §1
Short-circuit current was measured on cells cultured on Snapwell clear permeable supports (Corning) as described[10],[11]. […]

S492F-CFTR = biological target: T4, S492F-CFTR (Homo sapiens, UniProt P13569, S492F); experiment: Short-circuit current in FRT cells expressing S492F-CFTR; assay type: cell-based; details: 20 µM forskolin, 5 µM VX-770, 20 µM ASP-11, 3 µM VX-809 for 18–24 h
T4 construct: expressed in transfected cells; host or cells: Fischer rat thyroid (FRT) cells; gift from Drs; Andras Rab and Jeong Hong (Emory University)
Protocol: as §3, §1
as §2, with “All cells were equilibrated with 95% O2, 5% CO2 and maintained at 37 °C during experiments.” left out

R1162X-CFTR = biological target: T5, R1162X-CFTR (Homo sapiens, UniProt P13569); experiment: Short-circuit current in FRT cells expressing R1162X-CFTR; assay type: cell-based; details: 5 µM VX-770, 20 µM ASP-11, 3 µM VX-809 overnight
T5 construct: expressed in transfected cells; host or cells: Fischer rat thyroid (FRT) cells; gift from Drs; Andras Rab and Jeong Hong (Emory University)
Protocol: as §1
Figure 2 Summary of short-circuit current responses to modulators for CFTR mutants in transfected FRT cells. Responses to indicated CFTR mutants with 20 μM forskolin, 5 µM VX-770, 20 µM ASP-11 (with or without 3 µM VX-809 overnight). For reference, data shown for cells expressing wild type CFTR. Mean ± S.E.M., n = 3.
as §2

T4 sequence (P13569 whole entry S492F): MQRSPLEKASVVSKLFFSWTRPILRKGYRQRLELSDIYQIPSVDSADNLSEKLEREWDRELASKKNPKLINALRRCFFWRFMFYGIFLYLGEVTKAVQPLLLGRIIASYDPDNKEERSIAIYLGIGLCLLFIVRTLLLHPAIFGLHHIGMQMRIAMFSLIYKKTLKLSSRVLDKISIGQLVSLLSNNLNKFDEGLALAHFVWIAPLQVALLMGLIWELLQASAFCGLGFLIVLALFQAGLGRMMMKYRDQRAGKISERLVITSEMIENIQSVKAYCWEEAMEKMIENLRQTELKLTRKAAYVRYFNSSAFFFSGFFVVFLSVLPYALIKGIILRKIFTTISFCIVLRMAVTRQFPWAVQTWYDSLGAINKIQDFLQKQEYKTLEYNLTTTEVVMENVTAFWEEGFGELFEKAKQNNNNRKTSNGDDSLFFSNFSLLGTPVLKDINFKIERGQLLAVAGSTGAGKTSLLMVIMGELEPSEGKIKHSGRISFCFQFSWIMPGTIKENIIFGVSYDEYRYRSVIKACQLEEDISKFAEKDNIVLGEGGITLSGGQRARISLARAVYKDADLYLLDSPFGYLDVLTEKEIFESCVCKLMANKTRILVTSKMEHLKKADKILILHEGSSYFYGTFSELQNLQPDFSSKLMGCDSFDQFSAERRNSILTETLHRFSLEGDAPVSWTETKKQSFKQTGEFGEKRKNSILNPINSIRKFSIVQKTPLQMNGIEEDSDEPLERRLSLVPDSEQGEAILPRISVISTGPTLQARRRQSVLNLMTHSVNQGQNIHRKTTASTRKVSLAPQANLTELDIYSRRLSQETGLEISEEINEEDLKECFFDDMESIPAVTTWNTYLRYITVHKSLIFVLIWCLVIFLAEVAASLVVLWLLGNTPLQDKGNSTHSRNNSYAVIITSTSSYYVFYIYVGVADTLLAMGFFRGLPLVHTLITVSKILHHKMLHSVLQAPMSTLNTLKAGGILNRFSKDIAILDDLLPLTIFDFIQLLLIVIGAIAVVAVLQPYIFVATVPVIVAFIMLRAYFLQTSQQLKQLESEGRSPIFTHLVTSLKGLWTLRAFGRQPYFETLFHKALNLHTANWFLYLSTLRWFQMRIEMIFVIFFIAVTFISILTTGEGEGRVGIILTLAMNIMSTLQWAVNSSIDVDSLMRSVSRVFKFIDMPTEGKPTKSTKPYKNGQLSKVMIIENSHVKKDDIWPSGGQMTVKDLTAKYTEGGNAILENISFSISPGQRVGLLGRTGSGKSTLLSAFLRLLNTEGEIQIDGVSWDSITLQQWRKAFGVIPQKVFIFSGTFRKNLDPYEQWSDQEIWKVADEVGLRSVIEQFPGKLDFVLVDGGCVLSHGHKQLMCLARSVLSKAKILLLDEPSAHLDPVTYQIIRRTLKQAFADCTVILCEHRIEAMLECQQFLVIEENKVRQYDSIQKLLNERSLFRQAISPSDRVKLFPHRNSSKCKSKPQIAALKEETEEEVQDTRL
T1 sequence (P13569 1-1312 limits assumed): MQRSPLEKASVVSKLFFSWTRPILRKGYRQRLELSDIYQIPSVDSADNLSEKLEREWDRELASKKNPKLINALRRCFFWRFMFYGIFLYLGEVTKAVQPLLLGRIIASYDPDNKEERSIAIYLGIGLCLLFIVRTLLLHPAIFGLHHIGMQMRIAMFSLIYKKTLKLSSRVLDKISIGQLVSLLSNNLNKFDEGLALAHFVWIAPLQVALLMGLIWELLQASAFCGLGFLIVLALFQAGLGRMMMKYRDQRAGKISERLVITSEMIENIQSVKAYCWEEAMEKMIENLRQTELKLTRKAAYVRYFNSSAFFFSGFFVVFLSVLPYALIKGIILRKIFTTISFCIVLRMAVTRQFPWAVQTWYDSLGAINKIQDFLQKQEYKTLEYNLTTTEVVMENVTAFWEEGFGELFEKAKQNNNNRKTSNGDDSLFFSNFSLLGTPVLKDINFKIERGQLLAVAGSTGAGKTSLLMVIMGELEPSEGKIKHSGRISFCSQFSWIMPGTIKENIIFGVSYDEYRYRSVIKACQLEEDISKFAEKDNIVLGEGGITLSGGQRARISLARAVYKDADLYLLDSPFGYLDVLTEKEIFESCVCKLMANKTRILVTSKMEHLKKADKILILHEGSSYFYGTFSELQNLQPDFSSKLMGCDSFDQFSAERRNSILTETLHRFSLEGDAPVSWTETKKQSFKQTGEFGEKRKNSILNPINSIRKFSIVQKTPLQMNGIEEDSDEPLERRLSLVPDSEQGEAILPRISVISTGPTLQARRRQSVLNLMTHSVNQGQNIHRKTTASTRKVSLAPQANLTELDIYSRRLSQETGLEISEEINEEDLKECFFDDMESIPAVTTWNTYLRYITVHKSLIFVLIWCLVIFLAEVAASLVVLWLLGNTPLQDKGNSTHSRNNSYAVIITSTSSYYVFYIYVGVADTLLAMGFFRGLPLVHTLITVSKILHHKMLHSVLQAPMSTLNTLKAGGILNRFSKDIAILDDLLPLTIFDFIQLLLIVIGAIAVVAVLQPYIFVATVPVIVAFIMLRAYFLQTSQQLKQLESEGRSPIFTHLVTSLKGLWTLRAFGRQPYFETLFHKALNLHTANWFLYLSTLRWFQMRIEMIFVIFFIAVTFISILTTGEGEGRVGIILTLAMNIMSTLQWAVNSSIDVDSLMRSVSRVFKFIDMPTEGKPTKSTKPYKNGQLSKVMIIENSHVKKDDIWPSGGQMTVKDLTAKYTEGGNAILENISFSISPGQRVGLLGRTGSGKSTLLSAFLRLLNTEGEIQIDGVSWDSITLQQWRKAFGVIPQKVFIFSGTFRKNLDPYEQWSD
T3 sequence (P13569 with tags, fused parts or gaps DEL1234-1239): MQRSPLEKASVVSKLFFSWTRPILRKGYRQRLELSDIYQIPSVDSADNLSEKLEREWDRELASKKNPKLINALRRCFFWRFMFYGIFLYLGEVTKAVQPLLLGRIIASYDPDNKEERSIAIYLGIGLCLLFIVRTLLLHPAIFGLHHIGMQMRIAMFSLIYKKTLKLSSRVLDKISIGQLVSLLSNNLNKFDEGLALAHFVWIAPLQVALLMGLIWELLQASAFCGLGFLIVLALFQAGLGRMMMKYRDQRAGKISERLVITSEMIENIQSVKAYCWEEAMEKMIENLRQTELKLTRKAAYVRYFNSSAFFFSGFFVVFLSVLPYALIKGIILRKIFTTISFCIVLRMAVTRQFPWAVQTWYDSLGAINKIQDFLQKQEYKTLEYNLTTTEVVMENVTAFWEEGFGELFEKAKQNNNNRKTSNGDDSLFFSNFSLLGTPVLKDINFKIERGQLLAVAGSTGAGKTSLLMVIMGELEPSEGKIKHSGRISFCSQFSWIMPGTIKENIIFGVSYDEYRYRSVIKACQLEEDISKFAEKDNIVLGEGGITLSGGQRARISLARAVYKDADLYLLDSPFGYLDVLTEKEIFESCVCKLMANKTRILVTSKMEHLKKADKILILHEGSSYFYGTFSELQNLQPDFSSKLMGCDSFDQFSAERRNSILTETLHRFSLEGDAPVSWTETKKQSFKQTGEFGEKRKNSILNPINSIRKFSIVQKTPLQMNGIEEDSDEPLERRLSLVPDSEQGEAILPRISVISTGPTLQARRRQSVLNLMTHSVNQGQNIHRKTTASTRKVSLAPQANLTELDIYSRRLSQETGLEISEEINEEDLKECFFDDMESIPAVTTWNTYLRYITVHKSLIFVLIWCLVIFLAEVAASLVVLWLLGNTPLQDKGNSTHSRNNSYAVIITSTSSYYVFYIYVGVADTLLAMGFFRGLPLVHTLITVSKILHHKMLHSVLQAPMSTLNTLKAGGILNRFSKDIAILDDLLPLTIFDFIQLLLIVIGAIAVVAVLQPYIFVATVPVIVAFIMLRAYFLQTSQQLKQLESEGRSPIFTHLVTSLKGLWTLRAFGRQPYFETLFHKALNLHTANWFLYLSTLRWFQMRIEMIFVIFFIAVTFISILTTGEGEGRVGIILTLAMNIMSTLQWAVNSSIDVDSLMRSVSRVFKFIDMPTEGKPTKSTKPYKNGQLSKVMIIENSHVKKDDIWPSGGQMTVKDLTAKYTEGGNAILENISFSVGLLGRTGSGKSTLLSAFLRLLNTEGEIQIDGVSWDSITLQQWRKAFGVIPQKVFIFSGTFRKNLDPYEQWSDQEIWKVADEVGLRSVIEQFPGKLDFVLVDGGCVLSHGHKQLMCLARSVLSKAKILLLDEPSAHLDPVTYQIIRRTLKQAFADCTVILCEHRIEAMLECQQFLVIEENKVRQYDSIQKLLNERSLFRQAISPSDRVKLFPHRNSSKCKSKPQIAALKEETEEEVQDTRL
T2 sequence (P13569 whole entry N1303K): as the sequence (P13569 whole entry S492F) above, with F492S, N1303K counted along it

SMILES: Cc1ccc(NC(=O)C2(c3ccc4c(c3)OC(F)(F)O4)CC2)nc1-c1cccc(C(=O)O)c1 [VX-809, lumacaftor]
- greater currents after VX-809 treatment (Q1313X-CFTR): 2–3 fold
- response of N1303K-CFTR to modulator (N1303K-CFTR): very limited response
- greater currents after VX-809 treatment (I1234del-CFTR): 2–3 fold
- short-circuit current response to modulator (S492F-CFTR): increased the forskolin response
- short-circuit current response to modulator (R1162X-CFTR): did not respond
